This is an account of results in patent US20110086759A1, “CHEMICAL COMPOUNDS” (SYNGENTA CROP PROTECTION, INC., priority 2007, published 2011).

Type in all cases: in vivo
In assay [1] the test system is Amaranthus retoflexus (AMARE). The assay can be described thus: Pre-emergence biological efficacy, glasshouse pot test. Particulars: Amaranthus retroflexus, 312 h. The method in brief:
(§1)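 Standard soil, pots, sown then sprayed at day 1 with 1000 or 250 g/ha test compound. Glasshouse: 24/16 °C, 14 h photoperiod, 65% humidity, twice-daily watering. Evaluation day 13, 0–100 damage score.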

Assay [2] relates to Alopecurus myosuroides (ALOMY). Described as above. The conditions noted are these: 312 h. The method in brief:
as §1

Assay [3] relates to Echinochloa crus-galli (ECHCG). Described as above. The conditions noted are these: 312 h. The method in brief: as §1
Assay [4] has as its system Solanum nigrum (SOLNI). The description is as above. The conditions noted are these: 312 h. An outline of the steps: as §1
The test system of assay [5] is Setaria faberi (SETFA). The description is as above. The conditions noted are these: 312 h. An outline of the steps:
as §1

The subject of assay [6] is Ipomea hederaceae (IPOHE). The assay is described as above. Particulars: Ipomoea hederacea, 312 h. The method in brief:
as §1

Assay [7] has as its system Amaranthus retoflexus (AMARE). The experiment in a line: Post-emergence biological efficacy, glasshouse pot test. The conditions noted are these: Amaranthus retroflexus, 312 h. The method in brief: (§2)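 Scored 13 days after spraying on a 0 (no damage) to 100 (total damage) scale. Treatment was a post-emergence spray at 1000 or 250 g/ha, from acetone/water 50:50 plus 0.5% Tween 20, onto 8-day-old plants in soil pots. Growth at 24/16° C, 14 h photoperiod, 65% humidity, watered twice daily.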

Assay [8] relates to Alopecurus myosuroides (ALOMY). The description is as above. The conditions noted are these: 312 h. An outline of the steps: as §2
Assay [9] has as its system Echinochloa crus-galli (ECHCG). The assay is described as above. The conditions noted are these: 312 h. An outline of the steps: as §2
Assay [10] concerns Solanum nigrum (SOLNI). The description is as above. The conditions noted are these: 312 h. An outline of the steps: as §2
Assay [11] concerns Setaria faberi (SETFA). Described as above. The conditions noted are these: 312 h. An outline of the steps:
as §2

Assay [12] deals with Ipomea hederaceae (IPOHE). The assay is described as above. Particulars: Ipomoea hederacea, 312 h. The method in brief: as §2
The mark [13] stands for this setting: pre-emergence, rate 1,000 g/ha, evaluated after 13 days (100=total damage to plant; 0=no damage), read-out: Percentage damage caused to weed species, AMARE.
Setting [14] is: pre-emergence, rate 1,000 g/ha, evaluated after 13 days (100=total damage to plant; 0=no damage), read-out: Percentage damage caused to weed species, ALOMY.
[15] abbreviates: pre-emergence, rate 1,000 g/ha, evaluated after 13 days (100=total damage to plant; 0=no damage), read-out: Percentage damage caused to weed species, ECHCG.
The mark [16] stands for this setting: pre-emergence, rate 1,000 g/ha, evaluated after 13 days (100=total damage to plant; 0=no damage), read-out: Percentage damage caused to weed species, SOLNI.
Where [17] appears, read: pre-emergence, rate 1,000 g/ha, evaluated after 13 days (100=total damage to plant; 0=no damage), read-out: Percentage damage caused to weed species, SETFA.
The mark [18] stands for this setting: pre-emergence, rate 1,000 g/ha, evaluated after 13 days (100=total damage to plant; 0=no damage), read-out: Percentage damage caused to weed species, IPOHE.
The mark [19] stands for this setting: Rate 1,000 g/ha, post-emergence spray, evaluated after 13 days (100=total damage to plant; 0=no damage to plant), read-out: Percentage damage caused to weed species, post-emergence, AMARE.
[20] abbreviates: Rate 1,000 g/ha, post-emergence spray, evaluated after 13 days (100=total damage to plant; 0=no damage to plant), read-out: Percentage damage caused to weed species, post-emergence, ALOMY.
[21] abbreviates: Rate 1,000 g/ha, post-emergence spray, evaluated after 13 days (100=total damage to plant; 0=no damage to plant), read-out: Percentage damage caused to weed species, post-emergence, ECHCG.
The mark [22] stands for this setting: Rate 1,000 g/ha, post-emergence spray, evaluated after 13 days (100=total damage to plant; 0=no damage to plant), read-out: Percentage damage caused to weed species, post-emergence, SOLNI.
Setting [23] is: Rate 1,000 g/ha, post-emergence spray, evaluated after 13 days (100=total damage to plant; 0=no damage to plant), read-out: Percentage damage caused to weed species, post-emergence, SETFA.
Setting [24] is: Rate 1,000 g/ha, post-emergence spray, evaluated after 13 days (100=total damage to plant; 0=no damage to plant), read-out: Percentage damage caused to weed species, post-emergence, IPOHE.
Where [25] appears, read: pre-emergence, 1,000 g/ha, evaluated after 13 days (100=total damage; 0=no damage), read-out: Percentage damage AMARE.
[26] abbreviates: pre-emergence, 1,000 g/ha, evaluated after 13 days (100=total damage; 0=no damage), read-out: Percentage damage ALOMY.
Where [27] appears, read: pre-emergence, 1,000 g/ha, evaluated after 13 days (100=total damage; 0=no damage), read-out: Percentage damage ECHCG.
[28] abbreviates: pre-emergence, 1,000 g/ha, evaluated after 13 days (100=total damage; 0=no damage), read-out: Percentage damage SOLNI.
The mark [29] stands for this setting: pre-emergence, 1,000 g/ha, evaluated after 13 days (100=total damage; 0=no damage), read-out: Percentage damage SETFA.
Setting [30] is: pre-emergence, 1,000 g/ha, evaluated after 13 days (100=total damage; 0=no damage), read-out: Percentage damage IPOHE.
[31] abbreviates: post-emergence, 1,000 g/ha, evaluated after 13 days (100=total damage; 0=no damage), read-out: Percentage damage caused to weed species, AMARE.
Setting [32] is: post-emergence, 1,000 g/ha, evaluated after 13 days (100=total damage; 0=no damage), read-out: Percentage damage caused to weed species, ALOMY.
[33] abbreviates: post-emergence, 1,000 g/ha, evaluated after 13 days (100=total damage; 0=no damage), read-out: Percentage damage caused to weed species, ECHCG.
Setting [34] is: post-emergence, 1,000 g/ha, evaluated after 13 days (100=total damage; 0=no damage), read-out: Percentage damage caused to weed species, SOLNI.
[35] abbreviates: post-emergence, 1,000 g/ha, evaluated after 13 days (100=total damage; 0=no damage), read-out: Percentage damage caused to weed species, SETFA.
[36] abbreviates: post-emergence, 1,000 g/ha, evaluated after 13 days (100=total damage; 0=no damage), read-out: Percentage damage caused to weed species, IPOHE.

In the case of `COC(=O)c1nc(C2CC2)nc(N(C)Cc2nonc2C)c1Cl` [Compound 5-149, 5-Chloro-2-cyclopropyl-6-methoxycarbonyl-4-[N-methyl-N-(4-methyl-1,2,5-oxadiazol-3-ylmethyl)-amino]-pyrimidine], the pest or weed control at 1000 g/ha turned out to be 80% in assay [1] (setting [13]); 30% in [2] (setting [14]); 20% in assay [3] (setting [15]); 40% with Solanum nigrum (SOLNI) [4] (setting [16]); 10% with Setaria faberi (SETFA) [5] (setting [17]); 80% in assay [6] (setting [18]). Further, the pest or weed control at 1000 g/ha in [7] (setting [19]) turned out to be 100%; in assay [8] (setting [20]), 40%; in assay [9] (setting [21]), 40%; in the assay on Solanum nigrum (SOLNI) [10] (setting [22]), 90%; in the assay with Setaria faberi (SETFA) [11] (setting [23]), 80%; in assay [12] (setting [24]), 90%.

Regarding `CCCCCc1ccc(C(C)Nc2nc(C3CC3)nc(C(=O)OC)c2Cl)cc1` (stereo not drawn) [Compound 4-178, 5-Chloro-2-cyclopropyl-6-methoxycarbonyl-4-[1-(4-n-pentyl-phenyl)ethylamino]-pyrimidine], the pest or weed control at 1000 g/ha in assay [1] (setting [25]) worked out at 60%; in assay [2] (setting [26]), 10%; in assay [3] (setting [27]), 10%; with Solanum nigrum (SOLNI) [4] (setting [28]), 30%; with Setaria faberi (SETFA) [5] (setting [29]), 10%; in [6] (setting [30]) it was 40%. In addition, the pest or weed control at 1000 g/ha in assay [7] (setting [31]) was 70%; in assay [8] (setting [32]) it was 20%; in assay [9] (setting [33]) it was 20%; in the assay on Solanum nigrum (SOLNI) [10] (setting [34]) it was 80%; in the assay on Setaria faberi (SETFA) [11] (setting [35]) it was 30%; in [12] (setting [36]), 70%.

With `COC(=O)c1nc(C2CC2)nc(N(C)Cc2cccnc2)c1Cl` [Compound 5-156, 5-Chloro-2-cyclopropyl-6-methoxycarbonyl-4-(N-methyl-N-pyridin-3-ylmethyl-amino)pyrimidine], the pest or weed control at 1000 g/ha in [1] (setting [13]) is 90%; in assay [2] (setting [14]) it was 10%; in assay [3] (setting [15]), 0%; with Solanum nigrum (SOLNI) [4] (setting [16]), 20%; with Setaria faberi (SETFA) [5] (setting [17]), 0%; in assay [6] (setting [18]), 60%. Also, the pest or weed control at 1000 g/ha in assay [7] (setting [19]) was 100%; in [8] (setting [20]), 30%; in assay [9] (setting [21]), 20%; in the assay on Solanum nigrum (SOLNI) [10] (setting [22]), 80%; in the assay on Setaria faberi (SETFA) [11] (setting [23]) it was 60%; in assay [12] (setting [24]), 80%.

Take `COC(=O)c1nc(C2CC2)nc(NC(CO)C2CCOC2)c1Cl` (stereo not drawn) [Compound 4-201, 5-Chloro-2-cyclopropyl-4-(2-hydroxy-1-tetrahydrofuran-3-yl-ethylamino)-6-methoxycarbonyl-pyrimidine]: the pest or weed control at 1000 g/ha in assay [1] (setting [25]) is 100%; in [2] (setting [26]) it was 0%; in [3] (setting [27]), 20%; in the assay with Solanum nigrum (SOLNI) [4] (setting [28]), 100%; in the assay with Setaria faberi (SETFA) [5] (setting [29]), 10%; in assay [6] (setting [30]), 100%. Moreover, the pest or weed control at 1000 g/ha in assay [7] (setting [31]) turned out to be 100%; in assay [8] (setting [32]), 10%; in [9] (setting [33]) it was 10%; in the assay with Solanum nigrum (SOLNI) [10] (setting [34]) it was 90%; with Setaria faberi (SETFA) [11] (setting [35]) it was 20%; in assay [12] (setting [36]) it was 60%.

Regarding `COC(=O)c1nc(C2CC2)nc(NC(C)c2ccc(F)cc2)c1Cl` (stereo not drawn) [Compound 4-175, 5-Chloro-2-cyclopropyl-4-[1-(4-fluorophenyl)ethyl-amino]-6-methoxy-carbonylpyrimidine], the pest or weed control at 1000 g/ha in assay [1] (setting [25]) was 50%; in assay [2] (setting [26]) it was 10%; in assay [3] (setting [27]), 10%; in the assay with Solanum nigrum (SOLNI) [4] (setting [28]), 10%; in the assay with Setaria faberi (SETFA) [5] (setting [29]) it was 0%; in [6] (setting [30]), 70%. Further, the pest or weed control at 1000 g/ha was determined as 100% in assay [7] (setting [31]); 20% in assay [8] (setting [32]); 60% in [9] (setting [33]); 100% with Solanum nigrum (SOLNI) [10] (setting [34]); 90% in the assay on Setaria faberi (SETFA) [11] (setting [35]); 100% in assay [12] (setting [36]).

Consider `COC(=O)c1nc(C2CC2)nc(N(C)Cc2ccco2)c1Cl` [Compound 5-125, 5-Chloro-2-cyclopropyl-4-(N-furan-2-ylmethyl-N-methyl-amino)-6-methoxycarbonyl-pyrimidine], for which the pest or weed control at 1000 g/ha stood at 100% in [1] (setting [13]); 40% in [2] (setting [14]); 70% in assay [3] (setting [15]); 90% in the assay on Solanum nigrum (SOLNI) [4] (setting [16]); 80% in the assay on Setaria faberi (SETFA) [5] (setting [17]); 100% in assay [6] (setting [18]). Further, the pest or weed control at 1000 g/ha came out at 100% in [7] (setting [19]); 50% in [8] (setting [20]); 60% in assay [9] (setting [21]); 90% in the assay with Solanum nigrum (SOLNI) [10] (setting [22]); 80% in the assay on Setaria faberi (SETFA) [11] (setting [23]); 100% in [12] (setting [24]).

Consider `COC(=O)c1nc(-c2ccc(C)cc2F)nc(NCc2ccco2)c1Cl` [Compound 257-48, 5-Chloro-2-(2-fluoro-4-methylphenyl)-4-(furan-2-ylmethylamino)-6-methoxycarbonyl-pyrimidine], for which the pest or weed control at 1000 g/ha worked out at 90% in assay [1] (setting [13]); 20% in [2] (setting [14]); 40% in assay [3] (setting [15]); 10% in the assay with Solanum nigrum (SOLNI) [4] (setting [16]); 10% in the assay with Setaria faberi (SETFA) [5] (setting [17]); 30% in assay [6] (setting [18]). In addition, the pest or weed control at 1000 g/ha is 100% in assay [7] (setting [19]); 20% in assay [8] (setting [20]); 10% in assay [9] (setting [21]); 40% in the assay with Solanum nigrum (SOLNI) [10] (setting [22]); 0% in the assay on Setaria faberi (SETFA) [11] (setting [23]); 60% in assay [12] (setting [24]).
